The subject of one data set is HepG2. Briefly: Cytotoxicity against human HepG2 cells measured after 72 hrs by PrestoBlue cell viability reagent based assay. Conditions: HepG2, 72 h.
A short description of data set [1]: Half life in mouse liver microsomes at 1 uM measured after 30 mins in presence of NADPH by LC-MS/MS analysis. Format: ADME, Microsome. Conditions: for t1/2: microsomes, 0.5 h, 1 µM.
Data set [2] deals with Plasmepsin V (Plasmodium falciparum (isolate 3D7)) (UniProt Q8I6Z5). Briefly: Inhibition of Plasmodium falciparum plasmepsin 5 by knockdown assay.
In data set [3] the test system is Plasmodium falciparum. Put plainly: Inhibition of Plasmodium falciparum plasmepsin 9 by Western blot analysis. On the technique in general: Immunoblotting shows a protein as a band on a membrane.
The subject of data set [4] is Plasmodium falciparum. Briefly: Inhibition of Plasmodium falciparum plasmepsin 10 by Western blot analysis.
Data set [5] relates to Plasmodium falciparum. Briefly: microbe, parasite or virus in culture. Conditions: 3D7, 72 h.
Description: (§1) Antimalarial activity against chloroquine-sensitive Plasmodium falciparum 3D7 measured after 72 hrs by SYBR Green 1 dye based fluorescence assay
The subject of data set [6] is Plasmodium falciparum. Put plainly: Antimalarial activity against multidrug-resistant Plasmodium falciparum Dd2 measured after 72 hrs by SYBR Green 1 dye based fluorescence assay. Format: functional, organism-based. Conditions: Dd2, 72 h.
The nature of data set [7]: Half life in mouse at 2 mg/kg, iv by LC-MS analysis. It counts as ADME, organism-based. Conditions: in vivo.
A short description of data set [8]: Apparent clearance in mouse at 2 mg/kg, iv by LC-MS analysis. Format: ADME, organism-based. Conditions: in vivo, read-out: CL(app).
Data set [9] is described as follows: Apparent volume of distribution in mouse at 2 mg/kg, iv by LC-MS analysis. It counts as ADME, organism-based. Conditions: in vivo, read-out: Vz.
Data set [10] concerns Plasmodium chabaudi. Put plainly: Antimalarial activity against chloroquine-resistant Plasmodium chabaudi ASCQ infected in NIH mouse assessed as inhibition of parasitemia at 3 mg/kg, po administered once daily for 4 days starting from 4 hrs post-infection and measured on day 4 by Peter's 4 day test relative to control. It counts as functional.
For data set [11], the system named is Plasmodium chabaudi. Briefly: Antimalarial activity against chloroquine-resistant Plasmodium chabaudi ASCQ infected in NIH mouse assessed as inhibition of parasitemia at 10 mg/kg, po administered once daily for 4 days starting from 4 hrs post-infection and measured on day 4 by Peter's 4 day test relative to control. Format: functional.
For data set [12], the system named is Plasmodium chabaudi. Put plainly: Antimalarial activity against chloroquine-resistant Plasmodium chabaudi ASCQ infected in NIH mouse assessed as inhibition of parasitemia at 30 mg/kg, po administered once daily for 4 days starting from 4 hrs post-infection and measured on day 4 by Peter's 4 day test relative to control. It counts as functional.
Data set [13] concerns Plasmodium chabaudi. Briefly: Antimalarial activity against chloroquine-resistant Plasmodium chabaudi ASCQ infected in po dosed NIH mouse assessed as inhibition of parasitemia administered starting from 4 hrs post-infection by Peter's 4 day test. Format: functional.
Data set [14] can be described thus: Time at which plasma concentration stays above in-vitro antimalarial IC50 for chloroquine-sensitive Plasmodium falciparum 3D7 in NIH mouse infected with chloroquine-resistant Plasmodium chabaudi ASCQ at 30 mg/kg/day, po. Format: ADME, organism-based. Conditions: in vivo.
The target of data set [15] is Voltage-gated inwardly rectifying potassium channel KCNH2 (Homo sapiens, UniProt Q12809).
Description: Inhibition of Tracer Red binding to human ERG expressed in membranes by fluorescence polarization assay
A short description of data set [16]: Oral bioavailability in mouse at 5 mg/kg by LC-MS analysis. Conditions: in vivo.
In another data set the target is Beta-secretase 1 (Homo sapiens, UniProt P56817). Put plainly: Inhibition of recombinant human C-terminal His10-tagged BACE1 using Mca-SEVNLDAEFRK(Dpn)RR-NH2 as substrate measured after 60 mins by TR-FRET assay. A general note: TR-FRET usually uses a lanthanide donor and a delayed reading to cut background.
Another data set concerns the target Plasmepsin II (Plasmodium falciparum, UniProt P46925). Briefly: Inhibition of Plasmodium falciparum plasmepsin 2 using EDANS-CO-CH2-CH2-CO-ALERMFLSFP-Dap(DABCYL)OH as substrate measured after 60 mins by fluorescence assay.
A further data set addresses Plasmepsin 4 (Plasmodium falciparum, UniProt Q17SB2). Put plainly: Inhibition of Plasmodium falciparum plasmepsin 4 using EDANS-CO-CH2-CH2-CO-ALERMFLSFP-Dap(DABCYL)OH as substrate measured after 60 mins by fluorescence assay.
Data set [17] can be described thus: Intrinsic clearance in mouse liver microsomes at 1 uM measured after 30 mins in presence of NADPH by LC-MS/MS analysis. Conditions: 0.5 h. Format: ADME, Microsome. Background: Liver microsomes are vesicles of endoplasmic reticulum, rich in cytochrome P450 enzymes.
Data set [18] is described as follows: Oral bioavailability in mouse at 5 mg/kg by LC-MS analysis. Conditions: in vivo. The source holds these as a separate data set.
Data set [19] is described as follows: Half life in mouse at 1 mg/kg, iv by LC-MS analysis. It counts as ADME, organism-based. Conditions: in vivo.
The nature of data set [20]: Apparent clearance in mouse at 1 mg/kg, iv by LC-MS analysis. It counts as ADME, organism-based. Conditions: in vivo, read-out: CL(app).
The nature of data set [21]: Apparent volume of distribution in mouse at 1 mg/kg, iv by LC-MS analysis. It counts as ADME, organism-based. Conditions: in vivo, read-out: Vz.
Data set [22] has as its system Plasmodium falciparum.
Description: as §1

pIC50: −log10 of the molar value. The source made the active and inactive calls. The calls are words filed in the database; no cut-off is given here.

Plasmepsin 4, sequence (Q17SB2 whole entry): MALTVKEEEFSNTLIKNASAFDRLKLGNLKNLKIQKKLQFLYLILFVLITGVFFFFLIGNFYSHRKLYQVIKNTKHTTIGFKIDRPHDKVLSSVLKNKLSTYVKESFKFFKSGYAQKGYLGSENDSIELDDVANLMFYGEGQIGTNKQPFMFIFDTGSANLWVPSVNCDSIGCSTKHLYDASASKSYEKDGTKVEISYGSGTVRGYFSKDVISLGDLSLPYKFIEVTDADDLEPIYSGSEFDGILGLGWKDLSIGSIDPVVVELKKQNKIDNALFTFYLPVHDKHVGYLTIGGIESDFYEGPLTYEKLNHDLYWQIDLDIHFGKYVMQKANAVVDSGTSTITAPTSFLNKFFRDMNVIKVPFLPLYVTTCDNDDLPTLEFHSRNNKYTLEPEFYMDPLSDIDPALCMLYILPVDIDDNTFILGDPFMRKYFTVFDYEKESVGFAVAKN
Voltage-gated inwardly rectifying potassium channel KCNH2, sequence (Q12809 whole entry): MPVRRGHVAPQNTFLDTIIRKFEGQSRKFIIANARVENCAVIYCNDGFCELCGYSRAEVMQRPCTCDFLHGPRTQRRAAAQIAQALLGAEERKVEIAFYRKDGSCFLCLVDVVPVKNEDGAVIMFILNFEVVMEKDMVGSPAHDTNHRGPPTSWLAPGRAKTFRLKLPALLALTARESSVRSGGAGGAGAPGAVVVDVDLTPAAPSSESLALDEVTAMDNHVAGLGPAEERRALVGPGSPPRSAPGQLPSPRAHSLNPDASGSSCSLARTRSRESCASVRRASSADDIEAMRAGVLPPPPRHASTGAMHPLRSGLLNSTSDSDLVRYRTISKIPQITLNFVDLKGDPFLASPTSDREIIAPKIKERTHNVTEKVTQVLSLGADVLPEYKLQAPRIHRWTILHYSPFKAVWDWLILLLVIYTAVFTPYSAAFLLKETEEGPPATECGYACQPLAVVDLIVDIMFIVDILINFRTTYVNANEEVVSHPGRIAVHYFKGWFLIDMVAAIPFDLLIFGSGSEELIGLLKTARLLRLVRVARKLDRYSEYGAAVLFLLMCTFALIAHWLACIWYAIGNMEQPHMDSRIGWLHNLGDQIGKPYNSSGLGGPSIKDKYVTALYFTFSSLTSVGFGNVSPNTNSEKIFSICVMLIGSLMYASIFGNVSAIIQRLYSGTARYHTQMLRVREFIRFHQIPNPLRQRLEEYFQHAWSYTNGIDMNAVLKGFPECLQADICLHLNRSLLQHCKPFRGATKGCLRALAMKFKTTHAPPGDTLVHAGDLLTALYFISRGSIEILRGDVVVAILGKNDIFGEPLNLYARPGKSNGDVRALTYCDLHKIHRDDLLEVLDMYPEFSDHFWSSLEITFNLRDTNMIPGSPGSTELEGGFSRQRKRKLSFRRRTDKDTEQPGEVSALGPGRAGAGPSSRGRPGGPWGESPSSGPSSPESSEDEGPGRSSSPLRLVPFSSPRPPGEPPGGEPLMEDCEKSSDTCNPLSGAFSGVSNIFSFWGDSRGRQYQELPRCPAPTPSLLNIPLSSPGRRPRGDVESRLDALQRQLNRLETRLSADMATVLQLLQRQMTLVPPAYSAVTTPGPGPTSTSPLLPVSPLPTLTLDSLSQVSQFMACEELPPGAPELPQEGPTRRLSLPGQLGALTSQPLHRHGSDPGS
Plasmepsin II, sequence (P46925 whole entry): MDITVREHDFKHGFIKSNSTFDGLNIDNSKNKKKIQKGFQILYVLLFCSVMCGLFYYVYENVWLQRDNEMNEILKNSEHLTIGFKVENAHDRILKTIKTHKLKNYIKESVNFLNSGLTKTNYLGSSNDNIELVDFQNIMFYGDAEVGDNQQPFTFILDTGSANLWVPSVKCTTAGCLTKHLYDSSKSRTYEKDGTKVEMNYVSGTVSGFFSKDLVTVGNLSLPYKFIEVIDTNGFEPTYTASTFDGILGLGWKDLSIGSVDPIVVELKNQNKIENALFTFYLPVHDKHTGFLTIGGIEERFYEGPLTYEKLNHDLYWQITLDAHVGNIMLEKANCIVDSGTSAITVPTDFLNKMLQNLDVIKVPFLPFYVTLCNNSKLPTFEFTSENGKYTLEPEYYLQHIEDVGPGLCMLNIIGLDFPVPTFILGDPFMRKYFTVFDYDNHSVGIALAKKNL
Beta-secretase 1, sequence (P56817 whole entry): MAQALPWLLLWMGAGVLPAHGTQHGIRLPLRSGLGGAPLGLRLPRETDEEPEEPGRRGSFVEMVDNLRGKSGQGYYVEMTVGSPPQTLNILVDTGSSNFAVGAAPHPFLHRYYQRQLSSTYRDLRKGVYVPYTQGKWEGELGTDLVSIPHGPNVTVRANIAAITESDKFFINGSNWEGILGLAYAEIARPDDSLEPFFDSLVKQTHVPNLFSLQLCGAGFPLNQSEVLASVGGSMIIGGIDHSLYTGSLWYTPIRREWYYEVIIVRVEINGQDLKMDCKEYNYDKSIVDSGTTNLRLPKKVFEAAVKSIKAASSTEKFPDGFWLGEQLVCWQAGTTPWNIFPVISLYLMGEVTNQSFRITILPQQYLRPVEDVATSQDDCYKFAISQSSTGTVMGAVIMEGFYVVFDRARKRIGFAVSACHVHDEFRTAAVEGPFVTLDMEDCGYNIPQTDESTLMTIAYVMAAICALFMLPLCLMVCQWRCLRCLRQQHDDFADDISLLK
Plasmepsin V (Plasmodium falciparum (isolate 3D7)), sequence (Q8I6Z5 whole entry, looked up): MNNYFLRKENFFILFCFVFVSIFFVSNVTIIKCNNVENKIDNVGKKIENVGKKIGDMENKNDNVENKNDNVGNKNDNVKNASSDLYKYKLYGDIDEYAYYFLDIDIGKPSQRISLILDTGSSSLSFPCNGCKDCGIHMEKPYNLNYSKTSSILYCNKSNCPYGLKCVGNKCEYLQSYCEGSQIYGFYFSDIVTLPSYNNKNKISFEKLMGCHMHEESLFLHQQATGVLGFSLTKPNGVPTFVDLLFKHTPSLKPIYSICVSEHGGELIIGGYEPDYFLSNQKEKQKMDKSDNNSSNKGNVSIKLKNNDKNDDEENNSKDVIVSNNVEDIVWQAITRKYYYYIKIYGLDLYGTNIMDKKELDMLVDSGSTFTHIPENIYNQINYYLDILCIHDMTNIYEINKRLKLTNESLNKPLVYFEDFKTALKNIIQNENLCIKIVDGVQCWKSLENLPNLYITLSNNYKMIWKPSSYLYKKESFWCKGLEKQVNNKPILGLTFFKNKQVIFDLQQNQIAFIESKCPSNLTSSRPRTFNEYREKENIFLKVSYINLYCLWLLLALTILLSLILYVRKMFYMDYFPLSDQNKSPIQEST

Turning to `COc1ccc(CNC(=O)[C@@H]2CNC[C@H]2c2ccc(C(F)(F)F)cc2)cc1` (racemic), the figures for the negative logarithm of the IC50 (pIC50) in the data set with HepG2 and in the data set on Plasmodium falciparum [5] were 4.48 and 6.41 to 6.44, respectively. For the same compound, the half-life at 1 µM in data set [1] (liver microsomes) was determined as 0.617 h. Also, the inhibition entry (in [2]; with Plasmodium falciparum [3]; in the data set on Plasmodium falciparum [4]) was “inactive” throughout.
As to `C[C@H](NC(=O)[C@H]1CNC[C@@H]1c1ccc(C(F)(F)F)cc1)c1ccc(N(C)C)cc1`, the t1/2 in data set [1] came out at 0.633 h. The pIC50 in the data set with Plasmodium falciparum [6] is 7.68; in data set [15], 4.49; in the data set with Plasmodium falciparum [5], 7.29 to 7.34. Further, the half-life in data set [7] was 4.4 h. The clearance in data set [8] was 0.198 L/h/kg. Besides, in [9], the Vd is 1.3 L/kg. Further, the inhibition in vivo at 3 mg/kg with Plasmodium chabaudi [10] is 22.4%. In addition, in the data set on Plasmodium chabaudi [11], the inhibition in vivo at 10 mg/kg worked out at 75.2%. Also, the inhibition in vivo at 30 mg/kg in the data set on Plasmodium chabaudi [12] is 98.7%. Besides, in the data set on Plasmodium chabaudi [13], the ED90 was found to be 20 mg/kg/day. For the same compound, in the data set on Plasmodium chabaudi [13], the ED99 stood at 30 mg/kg/day. For the same compound, in [14], the Time amounted to 24 h. In data set [16], the bioavailability was determined as 32%.
For `CCN(CC)CCCC(C)Nc1ccnc2cc(Cl)ccc12` (configuration not stated) [CHLOROQUINE], the inhibition in vivo at 10 mg/kg in the data set with Plasmodium chabaudi [11] turned out to be 95%.
As for `CN(C)c1ccc(CNC(=O)[C@H]2CNC[C@@H]2c2ccc(C(F)(F)F)nc2)cc1` (racemic), the t1/2 in data set [1] was 1.17 h. The pIC50 is below 5.00 on Beta-secretase 1; below 5.00 against Plasmepsin II; below 5.00 against Plasmepsin 4; 4.66 in data set [15]; 6.60 to 6.64 in the data set on Plasmodium falciparum [5]. Besides, in [17], the “Intrinsic clearance (CLint)” value amounted to 3.1 µL/min/mg. Besides, the half-life in data set [7] is 6.6 h. The clearance in data set [8] is 0.354 L/h/kg. Besides, the Vd in data set [9] amounted to 3.2 L/kg. This compound also had a bioavailability in data set [18] of 13%.
For the compound `Cc1ccc(CNC(=O)[C@@H]2CNC[C@H]2c2ccc(C(F)(F)F)cc2)cc1` (racemic), the t1/2 in [1] turned out to be 2.68 h. For the same compound, the pIC50 on Beta-secretase 1 is below 5.00; against Plasmepsin II, below 5.00; on Plasmepsin 4 it was below 5.00; in the data set with Plasmodium falciparum [5], 6.34. Moreover, in data set [17], the “Intrinsic clearance (CLint)” value was 1.4 µL/min/mg. The half-life in [19] is 1.7 h. Also, in [20], the clearance came out at 3.12 L/h/kg. The Vd in [21] stood at 7.3 L/kg.
In the data set on Plasmodium falciparum [22], `CN(C)c1ccc(CNC(=O)[C@H]2CNC[C@@H]2c2ccc(C(F)(F)F)nc2)cc1` showed a pIC50 of 6.94.

What is called pIC50 is the IC50 on a negative log10 scale, so that one unit is a factor of ten. A word on the half-life: it is how long it takes for the measured level to halve. What is called inhibition in vivo is the share of the control response that was lost under treatment. A word on the bioavailability: it is the share of a dose that reaches the circulation, judged against a reference dose that is usually intravenous.

Values taken from ChEMBL document CHEMBL4390670, “4-Aryl Pyrrolidines as a Novel Class of Orally Efficacious Antimalarial Agents. Part 1: Evaluation of 4-Aryl- N-benzylpyrrolidine-3-carboxamides” (J Med Chem, 2019).
